# Active and inactive are the calls of the source. The calls are words filed in the database; no cut-off is given here.
# Columns and labels:
# [1] = molecular target: Tyrosine-protein kinase JAK1 (Homo sapiens) (UniProt P23458); details: Compound concentration 1000.0 nM
# [2] = molecular target: Dual serine/threonine and tyrosine protein kinase (Homo sapiens) (UniProt Q6XUX3); details: Compound concentration 1000.0 nM
# [3] = molecular target: Apoptosis regulator Bcl-2 (Homo sapiens, UniProt P10415); test: Time-resolved fluorescence energy transfer (TR-FRET) with BCL2
# [4] = molecular target: Receptor-type tyrosine-protein kinase FLT3 (Homo sapiens) (UniProt P36888); details: Compound concentration 1000.0 nM
# [5] = molecular target: Translocator protein (Rattus norvegicus) (UniProt P16257); test: BZD (peripheral) Eurofins-Cerep binding assay; set-up: ligand concentration 0.2 nM; details: filed as antagonist, Compound concentration 10.0 uM
# [6] = molecular target: MAP/microtubule affinity-regulating kinase 3 (Homo sapiens) (UniProt P27448); details: Compound concentration 1000.0 nM
# [7] = molecular target: Serine/threonine-protein kinase 33 (Homo sapiens) (UniProt Q9BYT3); details: Compound concentration 1000.0 nM
# [8] = molecular target: Tyrosine-protein kinase ABL1 (Homo sapiens) (UniProt P00519); details: Compound concentration 1000.0 nM
# [9] = molecular target: Tyrosine-protein kinase ZAP-70 (Homo sapiens) (UniProt P43403); details: Compound concentration 1000.0 nM
# [10] = molecular target: Serine/threonine-protein kinase ULK3 (Homo sapiens) (UniProt Q6PHR2); details: Compound concentration 1000.0 nM
# [11] = molecular target: T1, Muscarinic acetylcholine receptor M1 (Homo sapiens) (UniProt P11229); test: M1 (h) Eurofins-Cerep binding assay; set-up: ligand concentration 2 nM; details: filed as antagonist, Compound concentration 10.0 uM
# T1 sequence (whole entry): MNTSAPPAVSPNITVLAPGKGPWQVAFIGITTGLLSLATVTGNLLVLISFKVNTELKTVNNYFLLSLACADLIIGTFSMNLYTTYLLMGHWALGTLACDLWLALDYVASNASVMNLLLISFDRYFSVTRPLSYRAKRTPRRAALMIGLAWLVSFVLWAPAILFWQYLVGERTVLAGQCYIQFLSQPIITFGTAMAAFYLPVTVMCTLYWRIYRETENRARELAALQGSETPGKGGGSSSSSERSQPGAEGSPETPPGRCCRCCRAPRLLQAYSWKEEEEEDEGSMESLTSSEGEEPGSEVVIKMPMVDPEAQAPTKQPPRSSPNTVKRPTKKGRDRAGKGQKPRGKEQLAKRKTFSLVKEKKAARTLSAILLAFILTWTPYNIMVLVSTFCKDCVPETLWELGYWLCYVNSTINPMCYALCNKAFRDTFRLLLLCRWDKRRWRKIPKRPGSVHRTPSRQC
# [12] = molecular target: Serine/threonine-protein kinase TBK1 (Homo sapiens) (UniProt Q9UHD2); details: Compound concentration 1000.0 nM
# [13] = molecular target: Serine/threonine-protein kinase MAK (Homo sapiens) (UniProt P20794); details: Compound concentration 1000.0 nM
# [14] = molecular target: Rhodopsin kinase GRK1 (Homo sapiens) (UniProt Q15835); details: Compound concentration 1000.0 nM
# [15] = molecular target: STE20/SPS1-related proline-alanine-rich protein kinase (Homo sapiens) (UniProt Q9UEW8); details: Compound concentration 1000.0 nM
# [16] = system: Phosphatidylinositol 4,5-bisphosphate 3-kinase catalytic subunit alpha isoform (Homo sapiens), P42336 [I800L]; details: Compound concentration 1000.0 nM
# [17] = molecular target: Serine/threonine-protein kinase TAO1 (Homo sapiens) (UniProt Q7L7X3); details: Compound concentration 1000.0 nM
# [18] = molecular target: NUAK family SNF1-like kinase 2 (Homo sapiens) (UniProt Q9H093); details: Compound concentration 1000.0 nM
# [19] = molecular target: Membrane-associated tyrosine- and threonine-specific cdc2-inhibitory kinase (Homo sapiens) (UniProt Q99640); details: Compound concentration 1000.0 nM
# [20] = molecular target: Focal adhesion kinase 1 (Homo sapiens) (UniProt Q05397); details: Compound concentration 1000.0 nM
# [21] = molecular target: Sodium-dependent noradrenaline transporter (Homo sapiens) (UniProt P23975); test: norepinephrine transporter (h) Eurofins-Cerep binding assay; set-up: ligand concentration 1 nM; details: filed as antagonist, Compound concentration 10.0 uM
# [22] = molecular target: Serine/threonine-protein kinase SIK1 (Homo sapiens) (UniProt P57059); details: Compound concentration 1000.0 nM
# [23] = molecular target: Tyrosine-protein kinase Yes (Homo sapiens) (UniProt P07947); details: Compound concentration 1000.0 nM
# [24] = molecular target: Mitogen-activated protein kinase 10 (Homo sapiens) (UniProt P53779); details: Compound concentration 1000.0 nM
# [25] = molecular target: Serine/threonine-protein kinase 25 (Homo sapiens) (UniProt O00506); details: Compound concentration 1000.0 nM
# [26] = molecular target: Insulin-like growth factor 1 receptor (Homo sapiens) (UniProt P08069); details: Compound concentration 1000.0 nM
# [27] = molecular target: Ephrin type-A receptor 6 (Homo sapiens) (UniProt Q9UF33); details: Compound concentration 1000.0 nM
# [28] = molecular target: Mitogen-activated protein kinase kinase kinase 20 (Homo sapiens) (UniProt Q9NYL2); details: Compound concentration 1000.0 nM
# [29] = molecular target: Serine/threonine-protein kinase/endoribonuclease IRE1 (Homo sapiens) (UniProt O75460); details: Compound concentration 1000.0 nM
# [30] = molecular target: Serine/threonine-protein kinase B-raf (Homo sapiens) (UniProt P15056); details: Compound concentration 1000.0 nM
# [31] = molecular target: Glycogen synthase kinase-3 beta (Homo sapiens) (UniProt P49841); details: Compound concentration 1000.0 nM
# [32] = molecular target: T2, Alpha-2B adrenergic receptor (Homo sapiens) (UniProt P18089); details: Compound concentration 10.0 uM
# T2 sequence (whole entry): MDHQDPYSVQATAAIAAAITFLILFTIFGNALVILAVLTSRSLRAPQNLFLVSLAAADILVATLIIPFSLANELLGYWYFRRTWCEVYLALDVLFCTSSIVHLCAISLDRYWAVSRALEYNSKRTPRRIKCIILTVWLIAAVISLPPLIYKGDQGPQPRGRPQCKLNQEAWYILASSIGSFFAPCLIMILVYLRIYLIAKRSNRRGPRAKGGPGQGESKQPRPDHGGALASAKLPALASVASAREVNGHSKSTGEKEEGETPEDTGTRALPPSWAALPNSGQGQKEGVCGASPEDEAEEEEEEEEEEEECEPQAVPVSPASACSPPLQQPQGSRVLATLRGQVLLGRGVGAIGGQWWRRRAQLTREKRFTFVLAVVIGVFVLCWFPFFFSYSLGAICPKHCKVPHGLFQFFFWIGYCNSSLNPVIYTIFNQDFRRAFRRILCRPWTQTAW
# [33] = molecular target: Casein kinase II subunit alpha' (Homo sapiens) (UniProt P19784); details: Compound concentration 1000.0 nM
# Sequence of Serine/threonine-protein kinase SIK1 (Homo sapiens) (P57059 whole entry): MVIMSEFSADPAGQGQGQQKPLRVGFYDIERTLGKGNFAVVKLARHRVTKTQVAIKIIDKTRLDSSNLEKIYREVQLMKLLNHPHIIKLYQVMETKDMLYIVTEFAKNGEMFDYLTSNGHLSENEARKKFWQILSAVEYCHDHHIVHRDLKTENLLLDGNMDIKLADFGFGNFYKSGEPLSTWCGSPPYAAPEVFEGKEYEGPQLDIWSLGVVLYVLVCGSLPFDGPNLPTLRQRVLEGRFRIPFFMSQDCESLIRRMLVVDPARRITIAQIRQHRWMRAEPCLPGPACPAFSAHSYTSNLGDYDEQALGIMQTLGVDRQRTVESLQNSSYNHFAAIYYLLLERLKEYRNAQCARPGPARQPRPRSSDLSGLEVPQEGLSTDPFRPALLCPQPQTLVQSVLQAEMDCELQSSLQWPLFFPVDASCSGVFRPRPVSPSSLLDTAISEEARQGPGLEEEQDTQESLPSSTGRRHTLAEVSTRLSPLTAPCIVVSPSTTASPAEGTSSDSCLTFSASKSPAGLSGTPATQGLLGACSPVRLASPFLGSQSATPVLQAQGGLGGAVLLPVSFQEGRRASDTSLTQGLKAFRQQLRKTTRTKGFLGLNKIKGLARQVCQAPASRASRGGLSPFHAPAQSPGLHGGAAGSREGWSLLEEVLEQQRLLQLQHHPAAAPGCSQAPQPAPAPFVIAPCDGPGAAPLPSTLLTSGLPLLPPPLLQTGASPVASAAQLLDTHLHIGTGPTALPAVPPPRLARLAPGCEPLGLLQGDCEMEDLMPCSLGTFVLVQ
# Sequence of MAP/microtubule affinity-regulating kinase 3 (Homo sapiens) (P27448 whole entry, looked up): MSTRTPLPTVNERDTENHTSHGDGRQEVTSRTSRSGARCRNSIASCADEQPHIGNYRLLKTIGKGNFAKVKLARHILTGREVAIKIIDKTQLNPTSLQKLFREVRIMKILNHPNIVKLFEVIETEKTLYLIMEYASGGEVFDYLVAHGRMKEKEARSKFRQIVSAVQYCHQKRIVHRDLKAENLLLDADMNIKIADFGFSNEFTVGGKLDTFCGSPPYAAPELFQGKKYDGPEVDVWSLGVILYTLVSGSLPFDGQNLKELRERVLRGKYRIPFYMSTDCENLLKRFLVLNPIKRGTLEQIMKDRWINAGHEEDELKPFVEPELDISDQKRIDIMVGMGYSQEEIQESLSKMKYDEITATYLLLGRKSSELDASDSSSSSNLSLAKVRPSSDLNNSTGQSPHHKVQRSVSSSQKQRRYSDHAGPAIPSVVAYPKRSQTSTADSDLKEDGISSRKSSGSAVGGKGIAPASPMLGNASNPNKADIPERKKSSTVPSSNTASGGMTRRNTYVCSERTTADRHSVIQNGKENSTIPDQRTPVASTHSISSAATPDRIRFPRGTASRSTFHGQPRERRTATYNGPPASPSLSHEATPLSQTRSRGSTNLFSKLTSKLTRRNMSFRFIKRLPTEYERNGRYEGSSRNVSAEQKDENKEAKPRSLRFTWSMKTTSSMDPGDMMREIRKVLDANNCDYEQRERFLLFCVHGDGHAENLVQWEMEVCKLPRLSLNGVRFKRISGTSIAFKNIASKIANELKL
# Sequence of Apoptosis regulator Bcl-2 (P10415 whole entry): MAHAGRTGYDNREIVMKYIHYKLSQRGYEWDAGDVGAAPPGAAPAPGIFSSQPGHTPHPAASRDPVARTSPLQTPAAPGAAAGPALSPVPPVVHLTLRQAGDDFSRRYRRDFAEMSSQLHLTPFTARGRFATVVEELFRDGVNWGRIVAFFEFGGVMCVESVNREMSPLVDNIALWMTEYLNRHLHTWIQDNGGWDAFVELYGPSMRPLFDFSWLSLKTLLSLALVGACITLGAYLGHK
# Sequence of Dual serine/threonine and tyrosine protein kinase (Homo sapiens) (Q6XUX3 whole entry): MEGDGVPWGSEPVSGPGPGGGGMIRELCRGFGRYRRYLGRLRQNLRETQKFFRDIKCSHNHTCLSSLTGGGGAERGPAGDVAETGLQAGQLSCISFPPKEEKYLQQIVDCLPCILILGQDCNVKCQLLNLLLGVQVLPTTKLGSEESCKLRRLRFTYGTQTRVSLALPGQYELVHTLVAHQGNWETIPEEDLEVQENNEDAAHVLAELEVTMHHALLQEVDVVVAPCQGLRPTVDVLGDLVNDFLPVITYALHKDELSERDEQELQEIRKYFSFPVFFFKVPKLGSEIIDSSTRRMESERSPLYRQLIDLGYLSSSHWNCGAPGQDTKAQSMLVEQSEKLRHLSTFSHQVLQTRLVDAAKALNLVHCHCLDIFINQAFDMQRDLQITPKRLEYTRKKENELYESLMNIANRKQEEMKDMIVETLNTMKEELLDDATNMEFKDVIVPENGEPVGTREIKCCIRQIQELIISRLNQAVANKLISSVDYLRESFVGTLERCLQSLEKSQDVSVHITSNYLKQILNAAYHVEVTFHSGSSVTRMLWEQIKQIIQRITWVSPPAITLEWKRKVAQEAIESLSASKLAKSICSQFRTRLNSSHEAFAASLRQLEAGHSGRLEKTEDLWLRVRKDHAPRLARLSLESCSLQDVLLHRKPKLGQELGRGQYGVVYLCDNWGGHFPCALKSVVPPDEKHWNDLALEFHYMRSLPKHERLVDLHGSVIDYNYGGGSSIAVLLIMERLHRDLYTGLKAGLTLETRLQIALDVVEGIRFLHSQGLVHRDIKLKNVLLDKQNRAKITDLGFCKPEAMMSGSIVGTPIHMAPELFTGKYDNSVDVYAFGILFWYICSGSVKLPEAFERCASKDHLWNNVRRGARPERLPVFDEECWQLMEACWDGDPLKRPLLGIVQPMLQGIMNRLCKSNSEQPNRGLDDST
# Sequence of Translocator protein (Rattus norvegicus) (P16257 whole entry, looked up): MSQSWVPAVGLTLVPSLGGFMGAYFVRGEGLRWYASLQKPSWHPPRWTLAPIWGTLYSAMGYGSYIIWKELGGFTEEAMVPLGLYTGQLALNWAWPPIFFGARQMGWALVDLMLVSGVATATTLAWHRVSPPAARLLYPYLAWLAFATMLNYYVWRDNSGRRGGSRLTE
# Sequence of Serine/threonine-protein kinase MAK (Homo sapiens) (P20794 whole entry): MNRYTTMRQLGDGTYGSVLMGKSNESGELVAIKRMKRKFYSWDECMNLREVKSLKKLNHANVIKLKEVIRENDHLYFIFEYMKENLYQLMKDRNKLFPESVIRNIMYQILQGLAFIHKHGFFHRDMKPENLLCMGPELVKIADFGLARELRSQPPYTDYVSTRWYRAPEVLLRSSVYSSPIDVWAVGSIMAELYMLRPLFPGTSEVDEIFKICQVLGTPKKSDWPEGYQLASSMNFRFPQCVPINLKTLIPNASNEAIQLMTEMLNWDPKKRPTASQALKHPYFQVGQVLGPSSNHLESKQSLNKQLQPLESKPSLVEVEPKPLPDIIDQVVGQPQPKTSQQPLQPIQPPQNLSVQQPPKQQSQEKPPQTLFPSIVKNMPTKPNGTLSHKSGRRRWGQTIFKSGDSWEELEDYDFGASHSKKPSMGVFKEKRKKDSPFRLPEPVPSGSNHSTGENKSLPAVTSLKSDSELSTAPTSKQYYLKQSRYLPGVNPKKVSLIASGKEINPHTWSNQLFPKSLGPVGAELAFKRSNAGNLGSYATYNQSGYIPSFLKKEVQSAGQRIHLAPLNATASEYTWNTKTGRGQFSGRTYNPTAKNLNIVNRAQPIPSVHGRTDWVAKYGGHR
# Sequence of Tyrosine-protein kinase ABL1 (Homo sapiens) (P00519 whole entry): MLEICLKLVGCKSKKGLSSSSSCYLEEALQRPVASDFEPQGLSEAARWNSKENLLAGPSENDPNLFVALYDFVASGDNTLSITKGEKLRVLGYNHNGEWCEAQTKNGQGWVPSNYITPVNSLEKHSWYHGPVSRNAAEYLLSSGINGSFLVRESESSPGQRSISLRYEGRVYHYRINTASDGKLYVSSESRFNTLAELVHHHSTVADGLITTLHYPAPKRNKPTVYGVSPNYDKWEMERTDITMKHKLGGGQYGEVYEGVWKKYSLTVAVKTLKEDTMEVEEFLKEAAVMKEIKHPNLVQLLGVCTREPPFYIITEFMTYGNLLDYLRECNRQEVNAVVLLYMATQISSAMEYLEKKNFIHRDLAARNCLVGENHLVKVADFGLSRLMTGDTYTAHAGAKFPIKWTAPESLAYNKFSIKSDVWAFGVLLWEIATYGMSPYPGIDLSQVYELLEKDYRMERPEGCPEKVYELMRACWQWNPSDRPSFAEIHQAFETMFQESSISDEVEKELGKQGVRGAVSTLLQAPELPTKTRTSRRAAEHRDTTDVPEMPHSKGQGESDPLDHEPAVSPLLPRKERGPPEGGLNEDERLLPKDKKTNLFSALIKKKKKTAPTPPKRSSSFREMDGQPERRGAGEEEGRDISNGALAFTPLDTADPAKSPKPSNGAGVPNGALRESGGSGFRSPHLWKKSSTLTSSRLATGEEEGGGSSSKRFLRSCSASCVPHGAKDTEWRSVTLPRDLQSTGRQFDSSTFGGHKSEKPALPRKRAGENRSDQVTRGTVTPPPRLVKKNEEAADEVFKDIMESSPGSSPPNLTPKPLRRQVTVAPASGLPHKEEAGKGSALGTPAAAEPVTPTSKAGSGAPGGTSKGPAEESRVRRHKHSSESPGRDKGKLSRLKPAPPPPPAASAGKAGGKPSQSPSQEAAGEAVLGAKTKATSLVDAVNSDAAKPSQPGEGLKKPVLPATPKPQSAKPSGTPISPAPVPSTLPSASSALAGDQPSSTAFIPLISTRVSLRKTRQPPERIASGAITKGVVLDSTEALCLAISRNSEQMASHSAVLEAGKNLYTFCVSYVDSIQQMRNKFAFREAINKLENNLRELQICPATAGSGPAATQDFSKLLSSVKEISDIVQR
# Sequence of Serine/threonine-protein kinase 25 (Homo sapiens) (O00506 whole entry, looked up): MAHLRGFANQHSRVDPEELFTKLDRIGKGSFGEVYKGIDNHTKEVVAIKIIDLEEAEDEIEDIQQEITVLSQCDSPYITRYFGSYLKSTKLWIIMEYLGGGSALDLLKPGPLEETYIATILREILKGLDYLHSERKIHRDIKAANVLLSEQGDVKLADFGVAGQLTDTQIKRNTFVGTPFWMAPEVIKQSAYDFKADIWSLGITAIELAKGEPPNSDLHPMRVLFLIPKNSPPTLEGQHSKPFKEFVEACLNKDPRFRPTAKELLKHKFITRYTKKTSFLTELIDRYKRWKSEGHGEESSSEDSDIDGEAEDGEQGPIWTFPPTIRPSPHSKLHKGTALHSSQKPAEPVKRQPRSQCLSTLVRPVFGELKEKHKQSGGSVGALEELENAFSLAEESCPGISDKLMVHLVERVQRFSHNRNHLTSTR
Structure (SMILES),residual activity [1],residual activity [2],IC50 [3],residual activity [4],% Inhibition of Control Specific Binding (Mean n=2) [5],residual activity [6],residual activity [7],residual activity [8],residual activity [9],residual activity [10],% Inhibition of Control Specific Binding (Mean n=2) [11],residual activity [12],residual activity [13],residual activity [14],residual activity [15],residual activity [16],residual activity [17],residual activity [18],residual activity [19],residual activity [20],other results
O=C(NS(=O)(=O)c1ccc(NCC2CCOCC2)c([N+](=O)[O-])c1)c1ccc(N2CCN(Cc3ccc(C(F)(F)F)cc3-c3ccc(Cl)cc3)CC2)cc1Oc1cnc2[nH]ccc2c1 [A-1210227],100%,94%,296 nM (not active),80%,36%,100%,100%,86%,82%,85%,-0.2%,74%,97%,100%,89%,100%,87%,88%,90%,100%,% Inhibition of Control Specific Binding (Mean n=2) [21]: -14.5%; residual activity [22]: 90%; residual activity [23]: 100%; residual activity [24]: 82%; residual activity [25]: 98%; residual activity [26]: 100%; residual activity [27]: 100%; residual activity [28]: 100%; residual activity [29]: 90%; residual activity [30]: 100%; residual activity [31]: 100%; inhibition [32]: 15.6%; residual activity [33]: 100%
CO[C@H]1CC[C@H](CNc2ccc(S(=O)(=O)NC(=O)c3ccc(N4CCN(CC5=C(c6ccc(Cl)cc6)CC(C)(C)CC5)CC4)cc3Oc3cnc4[nH]ccc4c3)cc2[N+](=O)[O-])CC1 [A-1211212],100%,100%,1.4 nM (active),100%,44.9%,96%,100%,71%,97%,80%,-7.2%,60%,90%,72%,100%,98%,88%,95%,100%,100%,% Inhibition of Control Specific Binding (Mean n=2) [21]: 16.2%; residual activity [22]: 90%; residual activity [23]: 88%; residual activity [24]: 77%; residual activity [25]: 83%; residual activity [26]: 82%; residual activity [27]: 99%; residual activity [28]: 100%; residual activity [29]: 89%; residual activity [30]: 100%; residual activity [31]: 100%; inhibition [32]: 33%; residual activity [33]: 100%
